Assay results as given in patent US11377442B2, “Small molecule agonists and antagonists of NR2F6 activity” (ZANDER THERAPEUTICS, INC., priority 2016, dated 2022).
Entries after “also recorded” stand apart in the source; their conditions may differ. Like-named read-outs stand apart in the source and are kept apart here.

Assays:
Format in all cases: cell-based
ERα [1] = target: T1, ERα (Homo sapiens, UniProt P03372); experiment: Counterscreening, Firefly signal with ERα transient transfection (Firefly_ERa); conditions: for Firefly ERalpha transient, cmpd/DMSO (mean): 10 uM; for Firefly_ERa, cmpd/DMSO repeat 1 / Firefly_ERa, cmpd/DMSO repeat 2: ERα transient transfection, 10 μM
T1 construct: expressed in transfected cells
T1 sequence (P03372 1-595): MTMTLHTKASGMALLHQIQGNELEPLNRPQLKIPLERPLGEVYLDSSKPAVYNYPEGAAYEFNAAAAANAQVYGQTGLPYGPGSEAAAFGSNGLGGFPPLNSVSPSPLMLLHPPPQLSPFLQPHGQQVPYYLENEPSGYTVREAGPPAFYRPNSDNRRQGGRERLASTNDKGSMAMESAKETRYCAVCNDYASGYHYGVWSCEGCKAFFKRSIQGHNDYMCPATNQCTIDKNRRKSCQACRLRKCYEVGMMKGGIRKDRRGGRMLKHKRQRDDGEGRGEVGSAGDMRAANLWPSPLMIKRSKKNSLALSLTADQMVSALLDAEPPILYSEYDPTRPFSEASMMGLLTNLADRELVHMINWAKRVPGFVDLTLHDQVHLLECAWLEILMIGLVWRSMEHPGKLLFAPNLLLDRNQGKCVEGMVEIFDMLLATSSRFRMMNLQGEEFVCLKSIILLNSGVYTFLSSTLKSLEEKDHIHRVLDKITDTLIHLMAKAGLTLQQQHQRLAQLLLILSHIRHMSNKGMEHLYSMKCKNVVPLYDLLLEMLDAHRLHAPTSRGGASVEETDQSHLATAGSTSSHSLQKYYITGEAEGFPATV
Description: The methodology for screening candidate compounds as NR2F6 agonists was as follows: For primary screening, hit criteria was ACT %>DMSO control+5*SD (DSO control) at 10 μM, or any compound with S/B>2. For rescreening, hit criteria was ACT %>DMSO control+3*SD (DSO control) in each replicate at 10 μM. For counterscreening, hit criteria was mean ACT<DMSO control+3*SD (DMSO control) with ERα transient transfection in duplicate at 10 μM.

Renilla = Renilla signal in NR2F6 agonist screening, cmpd/DMSO; conditions: Renilla
ERα [2] = target: T1, ERα; experiment: Counterscreening, Firefly signal with ERα transient transfection (Firefly_ERa)
NR2F6 = target: T2, NR2F6 (Homo sapiens, UniProt P10588); experiment: NR2F6 agonist screening, Firefly signal cmpd/DMSO
T2 construct: expressed in transfected cells; also transient transfection
T2 sequence (P10588 1-404): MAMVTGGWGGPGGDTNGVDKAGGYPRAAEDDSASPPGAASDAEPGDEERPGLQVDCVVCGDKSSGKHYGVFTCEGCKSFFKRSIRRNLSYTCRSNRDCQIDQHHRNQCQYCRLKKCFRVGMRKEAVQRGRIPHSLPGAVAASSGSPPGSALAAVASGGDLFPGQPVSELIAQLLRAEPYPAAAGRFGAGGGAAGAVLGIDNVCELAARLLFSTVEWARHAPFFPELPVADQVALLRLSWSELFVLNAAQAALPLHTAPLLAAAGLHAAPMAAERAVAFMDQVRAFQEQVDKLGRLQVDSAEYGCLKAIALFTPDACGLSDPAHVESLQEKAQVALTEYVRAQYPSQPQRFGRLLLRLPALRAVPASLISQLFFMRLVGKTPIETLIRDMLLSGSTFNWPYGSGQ

Renilla_ERa = experiment: Renilla signal in ERα counterscreen (Renilla_ERa)
HEK293 pGL4 = experiment: Firefly_pGL signal, cmpd/DMSO (pGL4 control cells); conditions: Homo sapiens, HEK293, Table 14, read-out: Firefly pGL4, cmpd/DMSO (mean)
[3] = clone F4, read-out: Renilla F4, cmpd/DMSO (mean)
[4] = Table 14, read-out: Renilla F4, cmpd/DMSO (mean)
[5] = Table 14, 10 uM, read-out: Renilla F4, cmpd/DMSO (mean)
[6] = first set screening, 10 μM, repeat 1, read-out: Renilla, cmpd/DMSO repeat 1
[7] = first set screening, 10 μM, repeat 2, read-out: Renilla, cmpd/DMSO repeat 2
[8] = ERα transient transfection, 10 μM, repeat 1, read-out: Renilla_ERa, cmpd/DMSO repeat 1
[9] = ERα transient transfection, 10 μM, repeat 2, read-out: Renilla_ERa, cmpd/DMSO repeat 2
[10] = C11 analogs follow set (Tables 2-10)

Compound	Firefly ERalpha transient, cmpd/DMSO (mean) (ERα [1]; Table 15)	Firefly ERalpha transient, cmpd/DMSO (mean) (ERα [2]; Table 15, 2 uM)	Firefly ERalpha transient, cmpd/DMSO (mean) (ERα [2]; Table 15, 40 uM)	Firefly F4, cmpd/DMSO (mean) (NR2F6; Table 15, 2 uM)	Firefly F4, cmpd/DMSO (mean) (NR2F6; Table 15, 10 uM)	Firefly F4, cmpd/DMSO (mean) (NR2F6; Table 15, 40 uM)	Firefly_ERa, cmpd/DMSO repeat 1 (ERα [1])	Firefly_ERa, cmpd/DMSO repeat 2 (ERα [1])	Firefly F4, cmpd/DMSO (mean) (NR2F6; Table 14, 2 uM)	Firefly F4, cmpd/DMSO (mean) (NR2F6; Table 14, 10 uM)	Firefly F4, cmpd/DMSO (mean) (NR2F6; Table 14, 40 uM)	Firefly, cmpd/DMSO repeat 1 (NR2F6; first set screening, 10 μM)	fold induction at 2 µM (Renilla; [4])	fold induction at 10 µM (Renilla; [5])	fold induction at 40 µM (Renilla; [4])	fold induction at 10 µM (Renilla; [6])	fold induction at 10 µM (Renilla; [7])	fold induction at 2 µM (HEK293 pGL4)	fold induction at 10 µM (HEK293 pGL4)	fold induction at 40 µM (HEK293 pGL4)	other results
COC(=O)CNc1c(C#N)c(C(F)(F)F)nc2ccc(OC)cc12 [Compound Z46]	–	–	–	–	–	–	–	–	–	–	–	–	–	–	–	–	–	–	–	–	Firefly ERalpha transient, cmpd/DMSO (mean) (ERα [1]): 0.8; fold induction at 2 µM (Renilla; [3]): 0.9; fold induction at 10 µM (Renilla; 10 uM, clone F4, read-out: Renilla F4, cmpd/DMSO (mean)): 0.8; fold induction at 40 µM (Renilla; [3]): 0.6; Firefly ERalpha transient, cmpd/DMSO (mean) (ERα [2]; 2 uM): 0.9; Firefly ERalpha transient, cmpd/DMSO (mean) (ERα [2]; 40 uM): 0.6; Firefly F4, cmpd/DMSO (mean) (NR2F6; 2 uM, clone F4): 0.6; Firefly F4, cmpd/DMSO (mean) (NR2F6; 10 uM, clone F4): 0.8; Firefly F4, cmpd/DMSO (mean) (NR2F6; 40 uM, clone F4): 0.6; fold induction at 2 µM (Renilla_ERa; read-out: Renilla ERalpha transient, cmpd/DMSO (mean)): 0.9; fold induction at 10 µM (Renilla_ERa; 10 uM, read-out: Renilla ERalpha transient, cmpd/DMSO (mean)): 1; fold induction at 40 µM (Renilla_ERa; 40 uM, read-out: Renilla ERalpha transient, cmpd/DMSO (mean)): 1
CCOC(=O)c1cnn2c(-c3ccc(Cl)cc3)ccnc12 [Compound C4]	–	–	–	–	–	–	1.6	1.7	1.1	0.8	0.7	2.5	0.6	0.5	0.5	1.6	1.5	1	0.9	1.3	Firefly, cmpd/DMSO repeat 2 (NR2F6; first set screening, 10 μM): 2.5; fold induction at 10 µM (Renilla_ERa; [8]): 1.1; fold induction at 10 µM (Renilla_ERa; [9]): 1.2
COC(=O)c1ccc2oc(=O)c(S(=O)(=O)c3ccccc3)cc2c1 [Compound C11]	–	–	–	–	–	–	1.7	1.7	1.7	1.6	0.4	13.5	1.1	1.2	0.2	3.8	3.3	1.1	1.7	0.8	Firefly, cmpd/DMSO repeat 1 (NR2F6; [10]): 24.6; Firefly, cmpd/DMSO repeat 2 (NR2F6; [10]): 21.3; Firefly/Renilla (NR2F6 stable, clone F4) (NR2F6; Table 12, ratio Firefly/Renilla, NR2F6 stable clone F4): 1.8; Firefly, NR2F6 stable (clone F4)/pGL4 (NR2F6; Table 12, ratio of Firefly in NR2F6 stable clone F4 to pGL4): 7.0; Firefly, cmpd/DMSO repeat 1 (NR2F6; Table 12): 24.6; Firefly, cmpd/DMSO repeat 2 (NR2F6; Table 12): 21.3; Firefly, cmpd/DMSO repeat 2 (NR2F6; first set screening, 10 μM): 12.6; activity (in words) (NR2F6; screening result): particularly good activity; also recorded: particularly promising; fold induction at 10 µM (Renilla_ERa; [8]): 1.3; fold induction at 10 µM (Renilla_ERa; [9]): 1.2
Cc1ccc(-c2nc3ccccc3c(=O)[nH]2)cc1 [Compound C3]	–	–	–	–	–	–	1.8	1.9	1.5	1.1	0.9	2.0	1	0.9	0.9	1.6	1.2	1.1	1.3	1	Firefly, cmpd/DMSO repeat 2 (NR2F6; first set screening, 10 μM): 2.0; fold induction at 10 µM (Renilla_ERa; [8]): 1.1; fold induction at 10 µM (Renilla_ERa; [9]): 1.2
COc1ccc(-c2cn3cccc(C)c3n2)cc1 [Compound 19]	–	–	–	–	–	–	2.3	2.4	1.7	1.0	0.5	2.2	1.1	1	0.6	1.6	1.7	1.9	1.3	0.9	Firefly, cmpd/DMSO repeat 2 (NR2F6; first set screening, 10 μM): 1.7; fold induction at 10 µM (Renilla_ERa; [8]): 1.2; fold induction at 10 µM (Renilla_ERa; [9]): 1

Continued, in another order:

Firefly ERalpha transient, cmpd/DMSO (mean) (ERα [1]; Table 15)	Firefly ERalpha transient, cmpd/DMSO (mean) (ERα [2]; Table 15, 2 uM)	Firefly ERalpha transient, cmpd/DMSO (mean) (ERα [2]; Table 15, 40 uM)	Firefly F4, cmpd/DMSO (mean) (NR2F6; Table 15, 2 uM)	Firefly F4, cmpd/DMSO (mean) (NR2F6; Table 15, 10 uM)	Firefly F4, cmpd/DMSO (mean) (NR2F6; Table 15, 40 uM)	Firefly_ERa, cmpd/DMSO repeat 1 (ERα [1])	Firefly_ERa, cmpd/DMSO repeat 2 (ERα [1])	Firefly F4, cmpd/DMSO (mean) (NR2F6; Table 14, 2 uM)	Firefly F4, cmpd/DMSO (mean) (NR2F6; Table 14, 10 uM)	Firefly F4, cmpd/DMSO (mean) (NR2F6; Table 14, 40 uM)	Firefly, cmpd/DMSO repeat 1 (NR2F6; first set screening, 10 μM)	Compound	fold induction at 2 µM (Renilla; [4])	fold induction at 10 µM (Renilla; [5])	fold induction at 40 µM (Renilla; [4])	fold induction at 10 µM (Renilla; [6])	fold induction at 10 µM (Renilla; [7])	fold induction at 2 µM (HEK293 pGL4)	fold induction at 10 µM (HEK293 pGL4)	fold induction at 40 µM (HEK293 pGL4)	other results
1.3	2.4	0.4	3.9	1.8	0.4	–	–	–	–	–	–	CCOC(=O)c1cnc2c(C)cc(C)cc2c1NCCCN1CCCCC1 [Compound Z12]	–	–	–	–	–	–	–	–	–
9.5	1.7	2.9	1.5	6.5	0.6	–	–	–	–	–	–	CCOC(=O)c1cnc2c(C)cc(C)cc2c1NCCCN1CCCCC1 [Compound Z17]	–	–	–	–	–	–	–	–	–
2.4	2.2	0.4	2.6	4.0	0.7	–	–	–	–	–	–	CCOC(=O)c1cnc2c(C)cc(C)cc2c1NCCCN1CCCCC1 [Compound Z8]	–	–	–	–	–	–	–	–	fold induction at 2 µM (Renilla_ERa; Table 15, read-out: Renilla ERalpha transient, cmpd/DMSO (mean)): 1.4; fold induction at 10 µM (Renilla_ERa; Table 15, 10 uM, read-out: Renilla ERalpha transient, cmpd/DMSO (mean)): 1.4
1.6	2.1	0.6	3.5	1.2	0.5	–	–	–	–	–	–	CCOC(=O)c1cnc2c(C)cc(C)cc2c1NCCCN1CCCCC1 [Compound Z11]	–	–	–	–	–	–	–	–	–
2.7	2.2	0.5	2.5	6.7	1.2	–	–	–	–	–	–	CCOC(=O)c1cnc2c(C)cc(C)cc2c1NCCCN1CCCCC1 [Compound Z9]	–	–	–	–	–	–	–	–	–
1.5	4.2	0.5	5.8	1.6	0.7	–	–	–	–	–	–	CCOC(=O)c1cnc2c(C)cc(C)cc2c1NCCCN1CCCCC1 [Compound Z10]	–	–	–	–	–	–	–	–	–
12.7	1.9	0.7	1.3	6.3	0.7	–	–	–	–	–	–	CCOC(=O)c1cnc2c(C)cc(C)cc2c1NCCCN1CCCCC1 [Compound Z19]	–	–	–	–	–	–	–	–	–
